How the values were obtained:
[1] = Rat liver microsomal stability assay; format: in vitro ADME; details: both sexes, pH 7.4; pooled rat liver microsomes 0.5 mg/mL, 3 μM compound, NADPH, 37° C., 45 min; read-out: Microsomal stability T1/2 Rat
Method: (§1) Metabolic stability of indole-oxadiazole derivatives of Formula I was measured by determination of the rate of compound disappearance when incubated in the presence of human or rat liver microsomes. Liver microsomes are prepared from the endoplasmic reticulum of hepatocytes and are the primary source of the most important enzymes (cytochrome P450) involved in drug metabolism. Study of drug stability in the presence of liver microsomes is accepted as a valuable model permitting rapid prediction of in vivo drug stability.
(§2) Human and rat liver microsomes were obtained from commercial sources. Test compounds (3 μM) were incubated with pooled liver microsomes (male and female). Samples were incubated for a 45 minute period and removed at 5 time points and test compounds were analysed by LC-MS/MS.
(§3) Microsomes (final protein concentration 0.5 mg/mL), 0.1 M phosphate buffer pH 7.4, and test compound (final concentration 3 μM; diluted from 10 mM stock solution to give a final DMSO concentration of 0.25%) were incubated at 37° C. prior to the addition of NADPH (final concentration 1 mM) to initiate the reaction. The final incubation volume was 25 μL. A control incubation was included for each compound tested, where 0.1 M phosphate buffer pH 7.4 was added instead of NADPH. The control compounds testosterone and 7-hydroxycoumarin were included in each experiment and all incubations were performed singularly for each compound.
(§4) Each compound was incubated for 0, 5, 15, 30, and 45 minutes. The control (minus NADPH) was incubated for 45 minutes only. The reactions were stopped by the addition of 50 μL methanol containing internal standard at the appropriate time points. The incubation plates were centrifuged at 2500 rpm for 20 minutes at 4° C. to precipitate the protein.
(§5) Following protein precipitation, the sample supernatants were combined in cassettes of up to 4 compounds and analysed using standard LC-MS/MS conditions.
(§6) From a plot of the natural logarithm of the peak area ratio (i.e., the ratio of compound peak area:internal standard peak area) against time, the gradient of the line was determined. Subsequently, half-life and intrinsic clearance were calculated using the equations below:
(§7) Eliminated rate constant (k)=(−gradient).

cannabinoid CB1 receptor = target: T1, cannabinoid CB1 receptor (Homo sapiens, UniProt P21554); assay: PathHunter β-Arrestin assay (allosteric inhibition of agonist Emax); format: cell-based; details: HEK293 CB1 β-arrestin cells; concentration of modulator giving 50% reduction in agonist Emax; 60 min pre-incubation
T1 construct: host or cells: HEK293 CB1 β-arrestin cells
Description: PathHunter™ enzyme fragment complementation is the most important method to measure β-arrestin recruitment. PathHunter™ β-Arrestin assays developed by DiscoveRX are revolutionary high-throughput screening assays for monitoring GPCR activation following ligand stimulation, without an imaging instrument, fluorescent protein tag, or radioactivity.
Instead, the assays detect GPCR activation through binding of β-arrestin to the expressed GPCR of interest, and measure the interaction of the two proteins using enzyme fragment complementation (EFC). The EFC approach offers a range of benefits for screening, including signal amplification and robust performance.
The larger portion of β-gal, termed EA for enzyme acceptor, is fused to the C-terminus of β-arrestin. The smaller, complementing fragment of β-gal, the ProLink™ tag, is expressed as a fusion protein with the GPCR of interest at the C-terminus. Upon activation, the GPCR is bound by β-arrestin. The interaction of β-arrestin and the GPCR forces the interaction of ProLink and EA, thus allowing complementation of the two fragments of β-gal and the formation of a functional enzyme capable of hydrolyzing substrate and generating a […] signal.
Using the PathHunter™ CB1 kit from DiscoveRX, a cannabinoid CB1 receptor agonist is added and activates the receptor, EA, which is fused to the C-terminus of β-arrestin, and then interacts with the ProLink™ tag which is fused to the CB1 receptor. This will result in the […] signal that is recorded by a luminescence plate reader. The […] signal is directly related to the activation of the receptor, therefore a higher concentration of agonist will yield a larger […] signal. The cannabinoid agonist is added in increasing concentrations to obtain an agonist dose response curve. With pre-incubation of a potential allosteric modulator, either an enhancement of agonist activity with an allosteric enhancer or a decrease in the maximal response of the agonist with an allosteric inhibitor is expected.
All raw data are obtained as luminescence (relative light units), and are normalised and presented as a percentage of the maximal response for the cannabinoid CB1 receptor agonist CP55,940 (2-[(1R,2R,5R)-5-hydroxy-2-(3-hydroxypropyl)cyclohexyl]-5-(2-methyloctan-2-yl)phenol).
The PathHunter™ β-Arrestin assay (from DiscoveRX, Fremont, USA) was performed as follows. HEK293 CB1 β-arrestin cells were plated 48 hours before use and incubated at 37° C., 5% CO2 in a humidified incubator. Test compounds were dissolved in dimethylsulfoxide (DMSO) and diluted in optimized cell culture (OCC, as supplied by DiscoveRX) media to the required concentrations. 5 μL of test compound or vehicle solution was added to each well and incubated for 60 minutes at 37° C., 5% CO2 in a humidified incubator. 5 μL of increasing concentrations of anandamide was added to each well followed by a 90-minute incubation at 37° C., 5% CO2 in a humidified incubator. 55 μL of detection reagent (as supplied by DiscoveRX) was then added, followed by a further 90 minute incubation at room temperature in the dark. Chemiluminescence, reported in relative light units (RLU—a dimensionless value, standardised as a % of maximum stimulation with anandamide), was measured on a standard luminescence plate reader.
Data were plotted as % of maximal stimulation (Emax) caused by agonist versus the logarithm of concentration of agonist, in the presence or absence of a fixed concentration of test compound (modulator) or vehicle. For example, stimulation in the presence of agonist alone will give a value for stimulation expressed in RLU, which can be expressed as a range from 0% (at lowest agonist concentration, e.g., 1 nM) to 100% (at the highest agonist concentration, e.g., 10 μM). […]

[2] = Human liver microsomal stability assay; format: in vitro ADME; details: both sexes, pH 7.4; pooled human liver microsomes 0.5 mg/mL, 3 μM compound, NADPH, 37° C., 45 min; read-out: Microsomal stability T1/2 Human
Method: as §1, §2, §3, §4, §5, §6, §7

CB1 receptor [3] = target: T2, CB1 receptor (Mus musculus, UniProt P47746); parameters: from the CB1 receptor in mouse brain membranes; from tissue; host or cells: mouse brain membranes; details: mouse brain membranes; cited from earlier work
CB1 receptor [4] = target: T2, CB1 receptor; details: equilibrium binding assay, cited from earlier work; for effect on binding of CP55940: agonist CP55940

T1 sequence (P21554 whole entry): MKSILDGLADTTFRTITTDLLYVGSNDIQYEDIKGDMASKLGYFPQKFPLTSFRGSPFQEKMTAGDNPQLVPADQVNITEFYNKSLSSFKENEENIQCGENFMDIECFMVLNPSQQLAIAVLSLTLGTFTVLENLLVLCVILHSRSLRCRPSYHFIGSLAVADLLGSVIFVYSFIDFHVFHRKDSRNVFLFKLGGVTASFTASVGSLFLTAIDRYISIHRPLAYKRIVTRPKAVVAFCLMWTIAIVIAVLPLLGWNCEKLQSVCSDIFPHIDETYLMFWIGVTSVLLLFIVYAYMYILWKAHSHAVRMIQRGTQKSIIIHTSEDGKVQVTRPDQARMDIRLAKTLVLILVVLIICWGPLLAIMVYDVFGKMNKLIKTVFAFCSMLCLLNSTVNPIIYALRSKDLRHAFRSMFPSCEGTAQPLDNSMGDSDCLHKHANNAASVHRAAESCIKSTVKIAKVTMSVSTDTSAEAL
T2 sequence (P47746 whole entry): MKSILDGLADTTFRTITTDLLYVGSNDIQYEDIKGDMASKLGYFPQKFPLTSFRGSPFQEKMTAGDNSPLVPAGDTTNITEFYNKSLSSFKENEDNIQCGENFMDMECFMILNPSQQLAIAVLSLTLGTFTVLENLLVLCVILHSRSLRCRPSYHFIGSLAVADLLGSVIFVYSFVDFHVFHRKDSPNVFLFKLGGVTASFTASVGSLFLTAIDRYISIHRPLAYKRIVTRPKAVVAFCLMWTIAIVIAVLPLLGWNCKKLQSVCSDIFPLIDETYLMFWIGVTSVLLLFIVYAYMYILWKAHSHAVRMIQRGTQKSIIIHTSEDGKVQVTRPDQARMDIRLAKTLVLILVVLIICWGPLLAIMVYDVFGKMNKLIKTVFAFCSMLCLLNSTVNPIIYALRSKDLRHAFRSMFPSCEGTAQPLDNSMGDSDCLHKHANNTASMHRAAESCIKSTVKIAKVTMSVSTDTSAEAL

## CCc1c(-c2nnc(SCc3ccc(F)cc3)o2)[nH]c2ccc(Br)cc12 [ABM340, 2-(5-Bromo-3-ethyl-1H-indol-2-yl)-5-((4-fluorobenzyl)thio)-1,3,4-oxadiazole]
[1]
  half-life at 3 μM: 23 min
other
  melting point: 185 to 187 °C
Cannabinoid CB1 receptor
  IC50: 0.019 µM
[2]
  half-life at 3 μM: 40 min

## O=S(=O)(NCc1ccc(-c2ccc(F)cc2F)cn1)c1cc2cc(Cl)ccc2[nH]1 [Reference compound 2 (ABD1075), reference compound]
[1]
  half-life at 3 μM: 32 min
[2]
  half-life at 3 μM: 56 min

## CCc1c(-c2nnc(Nc3ccc(F)cc3)o2)[nH]c2ccc(Br)cc12 [ABM338, 5-(5-Bromo-3-ethyl-1H-indol-2-yl)-N-(4-fluorophenyl)-1,3,4-oxadiazol-2-amine]
[1]
  half-life at 3 μM: 292 min
other
  melting point: 243 to 245 °C
Cannabinoid CB1 receptor
  IC50: 0.001 µM
[2]
  half-life at 3 μM: 174 min

## CCc1c(C(=O)NCCc2ccc(N(C)C)cc2)[nH]c2ccc(F)cc12 [ORG27759]
CB1 receptor [3]
  effect on dissociation of radiolabelled CB1 receptor agonist CP55940: slowing of the dissociation
CB1 receptor [4]
  effect on binding of CP55940: increase
  effect on binding of radiolabelled inverse agonist SR141716A: decrease

## CCc1c(C(=O)NCCc2ccc(N3CCCCC3)cc2)[nH]c2ccc(Cl)cc12 [Reference compound 1 (Org27569)]
CB1 receptor [3]
  effect on dissociation of radiolabelled CB1 receptor agonist CP55940: slowing of the dissociation
[1]
  half-life at 3 μM: 28 min
CB1 receptor [4]
  effect on binding of CP55940: increase
  effect on binding of radiolabelled inverse agonist SR141716A: decrease
[2]
  half-life at 3 μM: 32 min

## O=S(=O)(NCc1ccc(-c2ccc(F)nc2F)cc1)c1cc2cc(Cl)ccc2[nH]1 [Reference compound 3 (ABD1085), reference compound]
[1]
  half-life at 3 μM: 48 min
[2]
  half-life at 3 μM: 39 min

## CCc1c(C(=O)NC2CCN(Cc3ccccc3)C2)[nH]c2ccc(Cl)cc12 (stereo not drawn) [ORG29647]
CB1 receptor [3]
  effect on dissociation of radiolabelled CB1 receptor agonist CP55940: slowing of the dissociation
CB1 receptor [4]
  effect on binding of CP55940: increase
  effect on binding of radiolabelled inverse agonist SR141716A: decrease

## CCc1c(-c2nnc(SCc3ccccc3)o2)[nH]c2ccc(Cl)cc12 [ABM328, 2-(Benzylthio)-5-(5-chloro-3-ethyl-1H-indol-2-yl)-1,3,4-oxadiazole]
[1]
  half-life at 3 μM: 40 min
other
  melting point: 180 to 182 °C
Cannabinoid CB1 receptor
  IC50: 0.058 µM
[2]
  half-life at 3 μM: 46 min

Source: US20220257569A1, “INDOLE-OXADIAZOLE COMPOUNDS AND THEIR THERAPEUTIC USE” (THE GOVERNING COUNCIL OF THE UNIVERSITY OF TORONTO, priority 2018, published 2022)
